Results as given in patent US9981025B2, “Anti-drug vaccines” (priority 2009, dated 2018).

Assay: Cocaine degradation in mouse sera by mass spectrometry
Assay type: in vitro ADME
Text: FIG. 15. Degradation of cocaine in non-immune mouse serum (NIS) and in non-immune mouse serum diluted in PBS (PBS/NIS) by mass spectrometry.
FIGS. 16A-B. Rates of cocaine degradation in (A) non-immune mouse sera and (B) 5 immune mouse sera measured by a decrease in peak area (y-axis) of the cocaine peak generated by mass-spectrometry analysis.
The kinetics of cocaine degradation in immune and non-immune mouse sera was then studied by mass spectroscopy to discern the pharmacological effects of anti-coc antibodies. Although degradation rates were nearly uniform in all non-immune mice (FIG. 16A), significant differences existed in the rates in immune mice, depending on the titer of anti-coc antibodies in the plasma (FIG. 16B).

For `COC(=O)[C@@H]1C2CCC(C[C@@H]1OC(=O)c1ccccc1)N2C` (some centres unmarked) [cocaine], the “rate of cocaine degradation” value (immune mouse sera, with increasing titer of anti-coc antibodies) was “degradation rates conversely decreased” and the “rate of cocaine degradation” value (non-immune mouse serum diluted in PBS versus undiluted) was “decreased rate of cocaine degradation”.
